This passage reports GI50 results from US20180141913A1 (EISAI R & D MANAGEMENT CO., LTD., priority 2016, published 2018).

Test [1] relates to MCF7-WT cells (MCF7 ER-alpha wildtype). As to the kind of experiment: In vitro proliferation (viability) assay, MCF7-WT cells. The conditions noted are these: Homo sapiens. In kind it is cell-based. How it is done:
(§1) MCF7 BUS cells (Coser, et al., (2003) PNAS 100(24): 13994-13999) were maintained in Dulbecco's Modified Eagle Medium supplemented with 10% FBS, 4 mM L-glutamine and 1× non-essential amino acids. Lenti-X 293T cells (Clontech, Cat #632180) were routinely cultured in Dulbecco's Modified Eagle Medium supplemented with 10% FBS.
(§2) The QuikChange II XL Site-Directed Mutagenesis Kit (Agilent Technologies, Cat #200523) was used to generate Y537S, Y537C, Y537N and D538G mutations within the ERα exon 8. Wild-type ESR1 cDNA (GeneCopoeia Inc., Cat# GC-A0322, accession no. NM 000125) was used as a template with the following mutagenesis primers (where the underlined nucleotides represent site mutations); Y537S: F-AAGAACGTGGTGCCCCTCTCTGACCTGCTGCTGGAGATG (SEQ ID NO: 1), R-CATCTCCAGCAGCAGGTCAGAGAGGGGCACCACGTTCTT (SEQ ID NO: 2); Y537N: F-AAGAACGTGGTGCCCCTCAATGACCTGCTGCTGGAGATG (SEQ ID NO: 3), R-CATCTCCAGCAGCAGGTCATTGAGGGGCACCACGTTCTT (SEQ ID NO: 4); Y537C: F-AAGAACGTGGTGCCCCTCTGTGACCTGCTGCTGGAGATG (SEQ ID NO: 5), R-CATCTCCAGCAGCAGGTCACAGAGGGGCACCACGTTCTT (SEQ ID NO: 6); D538G: F-AACGTGGTGCCCCTCTATGGCCTGCTGCTGGAGATGCTG (SEQ ID NO: 7), R-CAGCATCTCCAGCAGCAGGCCATAGAGGGGCACCACGTT (SEQ ID NO: 8). WT and mutant ESR1 cDNAs were cloned into the designation lentiviral vector pLenti6.3/V5-Dest (Invitrogen, Cat #V533-06). To make lentivirus, DNAs (WT and mutant ESR1) were co-transfected with packaging plasmids into Lenti-X 293T cells using TransIT (Mirus, Cat #MIR 2700). 48 h post-transfection, virus containing media was filtered and added to MCF7 cells in the presence of 8 µg/ml polybrene overnight. Two days following infection, cells were placed under selection with 10 µg/ml blasticidin for 2 weeks for stable expression.
(§3) MCF7-WT and -Y537S cells were seeded at 1500 cells/well in black-walled 96-well plates (assay plates, Costar, Cat #3904). In parallel, cells were also seeded in a separate 96-well plate (8 wells/cell line, control plate) for which a CTG (CellTiter-Glo® Luminescent Viability Assay, Promega, Cat #G7572) was measured the following day (day 0 reading). The day 0 reading was used for the GI50 calculation at the termination of the experiment. The day following seeding, compounds were added to assay plates. Briefly, a 1:4 serial dilution was prepared in DMSO at 200× final concentration for a total of 10 concentrations (9 dilutions containing compound and one is DMSO only). Serially diluted compounds were pipetted into medium to prepare a compound-medium mix at 10× final concentration. 10 μl of compound-medium mix was added to MCF7-WT and -Y537S cells at 3 wells/concentration (triplicate for each concentration). On day 3, media/compound was removed and replaced with fresh media/compound as described above. On day 6, CTG was measured and compared to day 0 readings from control plate to assess GI50.

Test [2] deals with MCF7-Y537S cells (MCF7 ER-alpha Y537S mutant). The experiment in a line: In vitro proliferation (viability) assay, MCF7-Y537S cells. In kind it is cell-based. To be noted: Homo sapiens. How it is done: as §1, §2, §3
Setting [3] is: MCF7, CellTiter-Glo, day 6 vs day 0, average ± standard deviation, free base and/or salt forms, read-out: MCF7 WT GI50.
The mark [4] stands for this setting: MCF7, CellTiter-Glo, day 6 vs day 0, average ± standard deviation, free base and/or salt forms, read-out: MCF7 Y537S GI50.

Like-named read-outs stand apart in the source and are kept apart here.

Broadly, the GI50 is the concentration that inhibits growth by half. As to `O=C(O)/C=C/CNCCOc1ccc(/C(=C(/CC(F)(F)F)c2ccccc2)c2ccc3[nH]nc(F)c3c2)cn1` [Compound 72, (E)-4-((2-((5-((Z)-4,4,4-trifluoro-1-(3-fluoro-1H-indazol-5-yl)-2-phenylbut-1-en-1-yl)pyridin-2-yl)oxy)ethyl)amino)but-2-enoic acid], the GI50 in test [1] (setting [3]) came to 1.86 ± 0.87 nM; in test [2] (setting [4]), 22.2 ± 14.3 nM.

As to `CNC(=O)/C=C/CNCCOc1ccc(/C(=C(/CC(F)(F)F)c2ccccc2)c2ccc3[nH]nc(F)c3c2)nn1` [Compound 54, (E)-N-methyl-4-((2-((6-((Z)-4,4,4-trifluoro-1-(3-fluoro-1H-indazol-5-yl)-2-phenylbut-1-en-1-yl)pyridazin-3-yl)oxy)ethyl)amino)but-2-enamide], the GI50 in test [1] (setting [3]) came to 892 ± 528 nM; in test [2] (setting [4]) it was 7690 nM.

Consider `COCCNC(=O)/C=C/CNCCOc1ccc(/C(=C(/CC(F)(F)F)c2ccccc2)c2ccc3[nH]nc(F)c3c2)cn1` [Compound 20, (E)-N-(2-methoxyethyl)-4-((2-((5-((Z)-4,4,4-trifluoro-1-(3-fluoro-1H-indazol-5-yl)-2-phenylbut-1-en-1-yl)pyridin-2-yl)oxy)ethyl)amino)but-2-enamide], for which the GI50 worked out at 0.66 ± 0.13 nM in test [1] (setting [3]) and 6.08 ± 2.69 nM in test [2] (setting [4]).

For the compound `CNC(=O)/C=C/CNCCOc1ccc(/C(=C(\c2ccccc2)C(C)C)c2ccc3[nH]nc(F)c3c2)cc1` [Compound 68, (E)-4-((2-(4-((E)-1-(3-fluoro-1H-indazol-5-yl)-3-methyl-2-phenylbut-1-en-1-yl)phenoxy)ethyl)amino)-N-methylbut-2-enamide], the GI50 was found to be 22 ± 2.66 nM in test [1] (setting [3]) and 101 ± 53 nM in test [2] (setting [4]).

Consider `CC/C(=C(/c1ccc(OCCNCCCC(=O)NC)cc1)c1ccc2[nH]ncc2c1)c1ccccc1` [Compound 51, (E)-4-((2-(4-(1-(1H-indazol-5-yl)-2-phenylbut-1-en-1-yl)phenoxy)ethyl)amino)-N-methylbutanamide], for which the GI50 in test [1] (setting [3]) is 9.82 ± 1.92 nM; in test [2] (setting [4]), 190 ± 50.1 nM.

On to `CNC(=O)CCCNCCOc1ccc(/C(=C(/CC(F)(F)F)c2ccccc2)c2ccc3[nH]nc(F)c3c2)cn1` [Compound 71, (Z)—N-methyl-4-((2-((5-(4,4,4-trifluoro-1-(3-fluoro-1H-indazol-5-yl)-2-phenylbut-1-en-1-yl)pyridin-2-yl)oxy)ethyl)amino)butanamide], for which the GI50 in test [1] (setting [3]) amounted to 0.62 nM; in test [2] (setting [4]) it was 5.31 nM.

For `CNC(=O)CCCCNCCOc1ccc(/C(=C(/CC(F)(F)F)c2ccccc2)c2ccc3[nH]nc(F)c3c2)cn1` [Compound 8, (Z)-N-methyl-5-((2-((5-(4,4,4-trifluoro-1-(3-fluoro-1H-indazol-5-yl)-2-phenylbut-1-en-1-yl)pyridin-2-yl)oxy)ethyl)amino)pentanamide], the GI50 in test [1] (setting [3]) amounted to 0.7 ± 0.27 nM; in test [2] (setting [4]), 14.7 ± 0.55 nM.

As for `CNC(=O)/C=C/CNCCOc1ccc(/C(=C(\c2ccccc2)C2CC2)c2ccc3[nH]nc(F)c3c2)cc1` [Compound 63, (E)-4-((2-(4-((E)-2-cyclopropyl-1-(3-fluoro-1H-indazol-5-yl)-2-phenylvinyl)phenoxy)ethyl)amino)-N-methylbut-2-enamide], the GI50 in test [1] (setting [3]) turned out to be 17.9 ± 8.66 nM; in test [2] (setting [4]), 117 ± 11.6 nM.

For `CC/C(=C(/c1ccc(OCCNCCCC(=O)NC)nc1)c1ccc2[nH]ncc2c1)c1ccccc1` [Compound 62, (Z)-4-((2-((5-(1-(1H-indazol-5-yl)-2-phenylbut-1-en-1-yl)pyridin-2-yl)oxy)ethyl)amino)-N-methylbutanamide], the GI50 in test [1] (setting [3]) stood at 3.31 ± 0.43 nM; in test [2] (setting [4]), 14.5 ± 4.32 nM.

On to `CNC(=O)/C=C/CCNCCOc1ccc(/C(=C(/CC(F)(F)F)c2ccccc2)c2ccc3[nH]nc(F)c3c2)cn1` [Compound 6, (E)-N-methyl-5-((2-((5-((Z)-4,4,4-trifluoro-1-(3-fluoro-1H-indazol-5-yl)-2-phenylbut-1-en-1-yl)pyridin-2-yl)oxy)ethyl)amino)pent-2-enamide], for which the figures for the GI50 in test [1] (setting [3]) and in test [2] (setting [4]) were 0.38 nM and 5.5 ± 0.47 nM, respectively.

On to `O=C1CCCN1CCOc1ccc(/C(=C(/CC(F)(F)F)c2ccccc2)c2ccc3[nH]nc(F)c3c2)cn1` [Compound 12, (Z)-1-(2-((5-(4,4,4-trifluoro-1-(3-fluoro-1H-indazol-5-yl)-2-phenylbut-1-en-1-yl)pyridin-2-yl)oxy)ethyl)pyrrolidin-2-one], for which the GI50 stood at 1.45 nM in test [1] (setting [3]) and 24 nM in test [2] (setting [4]).

On to `CNC(=O)/C=C/CNCCOc1ncc(/C(=C(/CC(F)(F)F)c2ccccc2)c2ccc3[nH]nc(F)c3c2)cn1` [Compound 45, (E)-N-methyl-4-((2-((5-((Z)-4,4,4,4-trifluoro-1-(3-fluoro-1H-indazol-5-yl)-2-phenylbut-1-en-1-yl)pyrimidin-2-yl)oxy)ethyl)amino)but-2-enamide], for which the GI50 in test [1] (setting [3]) came to 23.2 ± 9.42 nM; in test [2] (setting [4]), 71 ± 8.63 nM.

Turning to `O=C(/C=C/CNCCOc1ccc(/C(=C(/CC(F)(F)F)c2ccccc2)c2ccc3[nH]ncc3c2)cn1)N1CCOCC1` [Compound 19, (E)-1-morpholino-4-((2-((5-((Z)-4,4,4-trifluoro-1-(1H-indazol-5-yl)-2-phenylbut-1-en-yl)pyridin-2-yl)oxy)ethyl)amino)but-2-en-1-one], the values for the GI50 in test [1] (setting [3]) and in test [2] (setting [4]) were 0.66 ± 0.05 nM and 3.15 ± 0.01 nM, respectively.

`O=C(/C=C/CNCCOc1ccc(/C(=C(/CC(F)(F)F)c2ccccc2)c2ccc3[nH]nc(F)c3c2)cc1)N1CCCCC1` [Compound 52, (E)-1-(piperidin-1-yl)-4-((2-(4-((E)-4,4,4-trifluoro-1-(3-fluoro-1H-indazol-5-yl)-2-phenylbut-1-en-1-yl)phenoxy)ethyl)amino)but-2-en-1-one]: the GI50 in test [1] (setting [3]) is 1.2 nM; in test [2] (setting [4]), 9.3 nM.

Regarding `O=C1CCCN1CCOc1ccc(/C(=C(/CC(F)(F)F)c2ccccc2)c2ccc3[nH]nc(F)c3c2)cc1` [Compound 70, (E)-1-(2-(4-(4,4,4-trifluoro-1-(3-fluoro-1H-indazol-5-yl)-2-phenylbut-1-en-1-yl)phenoxy)ethyl)pyrrolidin-2-one], the GI50 in test [1] (setting [3]) worked out at 0.95 ± 0.25 nM; in test [2] (setting [4]), 6.18 ± 2.51 nM.

For the compound `Cl.[2H]C([2H])([2H])N(C(=O)/C=C/CNCCOc1ccc(/C(=C(/CC(F)(F)F)c2ccccc2)c2ccc3[nH]ncc3c2)cn1)C([2H])([2H])[2H]` [Compound 25, (E)-N,N-di(H3)methyl-4-((2-((5-((Z)-4,4,4-trifluoro-1-(1H-indazol-5-yl)-2-phenylbut-1-en-1-yl)pyridin-2-yl)oxy)ethyl)amino)but-2-enamide], the GI50 in test [1] (setting [3]) was 0.38 ± 0.16 nM; in test [2] (setting [4]) it was 1.58 ± 0.23 nM.

With `CCC/C(=C(/c1ccc(OCCNC/C=C/C(=O)NC)cc1)c1ccc2[nH]nc(F)c2c1)c1ccccc1` [Compound 67, (E)-4-((2-(4-((E)-1-(3-fluoro-1H-indazol-5-yl)-2-phenylpent-1-en-1-yl)phenoxy)ethyl)amino)-N-methylbut-2-enamide], the values for the GI50 in test [1] (setting [3]) and in test [2] (setting [4]) were 5.38 ± 0.66 nM and 87.7 ± 55 nM, respectively.

On to `O=C(CCCNCCOc1ccc(/C(=C(/CC(F)(F)F)c2ccccc2)c2ccc3[nH]nc(F)c3c2)cn1)N1CCCC1` [Compound 43], for which the GI50 in test [1] (MCF7, read-out: MCF7 WT GI50 (nM)) turned out to be 0.15 nM; in test [2] (MCF7, read-out: MCF7 Y537S GI50 (nM)), 3.21 nM.
